How the values were obtained:
A549 = assay: Cytotoxicity against human A549 cells after 72 hrs by MTT assay; type: functional, cell-based; details: A549, 72 h
KB = assay: Cytotoxicity against human KB cells after 72 hrs by MTT assay; type: functional, cell-based
[1] = Cytotoxicity against human KB/VCR cells after 72 hrs by MTT assay; type: functional, cell-based
[2] = Cytotoxicity against human 95-D cells after 72 hrs by MTT assay; type: functional, cell-based
[3] = Anticancer activity against human 95-D cells xenografted in BALB/c mouse at 50 mg/kg, ig administered 2 to 3 times a week for 20 days measured post last dose relative to control; type: functional; details: route intragastric
Mus musculus [4] = assay: Toxicity in BALB/c mouse xenografted with human 95-D cells assessed as body weight at 50 mg/kg, ig administered 2 to 3 times a week for 20 days measured post last dose (reference value: 21.6 +/- 0.6 gm); type: organism-based; parameters: dose 50 mg/kg, route intragastric; details: in vivo, po, 480 h
[5] = Anticancer activity against human 95-D cells xenografted in BALB/c mouse assessed as inhibition of tumor growth at 50 mg/kg, ig administered 2 to 3 times a week for 20 days measured post last dose; type: functional; details: po, 480 h, route intragastric
Mus musculus [6] = assay: Toxicity in BALB/c mouse xenografted with human 95-D cells assessed as body weight at 10 mg/kg administered intramuscularly every other day for 20 days measured post last dose (reference value: 21.6 +/- 0.6 gm); type: organism-based; parameters: dose 10 mg/kg, route intramuscular; details: in vivo, im, 480 h
[7] = Anticancer activity against human 95-D cells xenografted in BALB/c mouse at 10 mg/kg administered intramuscularly every other day for 20 days measured post last dose relative to control; type: functional; details: route intramuscular
[8] = Anticancer activity against human 95-D cells xenografted in BALB/c mouse assessed as inhibition of tumor growth at 10 mg/kg administered intramuscularly every other day for 20 days measured post last dose; type: functional; details: im, 480 h, route intramuscular

SMILES | IC50 (A549) [µM] | IC50 (KB) [µM] | IC50 [1] [µM] | IC50 [2] [µM] | Activity [3] [%] | Activity (Mus musculus [4]) [g] | inhibition in vivo at 50 mg/kg [5] [%] | Activity (Mus musculus [6]) [g] | Activity [7] [%] | inhibition in vivo at 10 mg/kg [8] [%]
COc1cc([C@@H]2c3cc4c(cc3[C@@H](Nc3ccc(NC(=O)c5ccc(Br)cc5)cc3)[C@H]3COC(=O)[C@H]23)OCO4)cc(OC)c1O | 18.9 | 8.75 | 5.72 | 1.66 | – | – | – | – | – | –
COc1cc([C@@H]2c3cc4c(cc3[C@@H](Nc3ccc(COCCO)cc3)[C@H]3COC(=O)[C@H]23)OCO4)cc(OC)c1O | 5.11 | 3.12 | 7.39 | 0.55 | – | – | – | – | – | –
COc1cc([C@@H]2c3cc4c(cc3[C@@H](Nc3cccc(CCN5CCCC5)c3)[C@H]3COC(=O)[C@H]23)OCO4)cc(OC)c1O | 3.91 | 0.39 | 1.85 | 1.17 | – | – | – | – | – | –
COc1cc([C@@H]2c3cc4c(cc3[C@@H](Nc3ccc(NC(=O)c5ccc(OC(C)=O)cc5)cc3)[C@H]3COC(=O)[C@H]23)OCO4)cc(OC)c1O | 2.68 | 1.91 | 8.48 | 0.42 | 46.3 | 16.8 | 57.3 | – | – | –
COc1cc([C@@H]2c3cc4c(cc3[C@@H](Nc3cccc(CCN5CCOCC5)c3)[C@H]3COC(=O)[C@H]23)OCO4)cc(OC)c1O | 5.1 | 0.48 | 2.09 | 14.8 | – | – | – | – | – | –
COc1cc([C@@H]2c3cc4c(cc3[C@@H](Nc3ccc(NC(=O)c5ccc(F)cc5)cc3)[C@H]3COC(=O)[C@H]23)OCO4)cc(OC)c1O | 1.56 | 2.91 | 5.31 | 1.08 | – | – | – | – | – | –
COc1cc([C@@H]2c3cc4c(cc3[C@@H](Nc3ccc(CCN5CCCCC5)cc3)[C@H]3COC(=O)[C@H]23)OCO4)cc(OC)c1O | 13.4 | 4.21 | 19.1 | 17.2 | – | – | – | – | – | –
COc1cc([C@@H]2c3cc4c(cc3[C@@H](Nc3ccc(NC(=O)c5ccc([N+](=O)[O-])cc5)cc3)[C@H]3COC(=O)[C@H]23)OCO4)cc(OC)c1O | 11 | > 50 | 13.7 | 3.41 | – | – | – | – | – | –
COc1cc([C@@H]2c3cc4c(cc3[C@@H](Nc3cccc(CCN5CCCCC5)c3)[C@H]3COC(=O)[C@H]23)OCO4)cc(OC)c1O | 2.75 | 0.43 | 1.78 | 7.4 | – | – | – | – | – | –
COc1cc([C@@H]2c3cc4c(cc3[C@@H](Nc3cccc(CN5CCCCC5)c3)[C@H]3COC(=O)[C@H]23)OCO4)cc(OC)c1O | 0.5 | 0.97 | 3.44 | 0.2 | – | – | – | – | – | –
CCN(CC)CCc1ccc(N[C@@H]2c3cc4c(cc3[C@@H](c3cc(OC)c(O)c(OC)c3)[C@H]3C(=O)OC[C@@H]32)OCO4)cc1 | 0.4 | 0.45 | 1.53 | 9.84 | – | – | – | – | – | –
COc1cc([C@@H]2c3cc4c(cc3[C@@H](Nc3ccc(CCN5CCOCC5)cc3)[C@H]3COC(=O)[C@H]23)OCO4)cc(OC)c1O | 1.94 | 0.78 | 1.27 | 11.5 | – | – | – | – | – | –
COc1cc([C@@H]2c3cc4c(cc3[C@@H](Nc3ccc(NC(=O)/C=C/c5ccccc5)cc3)[C@H]3COC(=O)[C@H]23)OCO4)cc(OC)c1O | > 50 | 6.53 | 2.8 | 1.25 | – | – | – | – | – | –
COc1ccc(CCC(=O)Nc2ccc(N[C@@H]3c4cc5c(cc4[C@@H](c4cc(OC)c(O)c(OC)c4)[C@H]4C(=O)OC[C@@H]43)OCO5)cc2)cc1 | > 50 | > 50 | 3.08 | 1.23 | – | – | – | – | – | –
COc1cc([C@@H]2c3cc4c(cc3[C@@H](N(C(=O)c3ccc([N+](=O)[O-])cc3)c3ccc(NC(=O)c5ccc([N+](=O)[O-])cc5)cc3)[C@H]3COC(=O)[C@H]23)OCO4)cc(OC)c1O | > 50 | > 50 | > 50 | 15.7 | – | – | – | – | – | –
COc1cc([C@@H]2c3cc4c(cc3[C@@H](Nc3ccc(NC(=O)CCc5ccccc5)cc3)[C@H]3COC(=O)[C@H]23)OCO4)cc(OC)c1O | 3.31 | 6.88 | 3.7 | 1.15 | – | – | – | 20.2 | 62.4 | 9.2

SMILES | IC50 (A549) [µM] | IC50 (KB) [µM] | IC50 [1] [µM] | IC50 [2] [µM] | Activity [3] [%] | Activity (Mus musculus [4]) [g] | inhibition in vivo at 50 mg/kg [5] [%] | Activity (Mus musculus [6]) [g] | Activity [7] [%] | inhibition in vivo at 10 mg/kg [8] [%]
COc1cc([C@@H]2c3cc4c(cc3[C@@H](Nc3ccc(COCCCO)cc3)[C@H]3COC(=O)[C@H]23)OCO4)cc(OC)c1O | 7.45 | 6 | 5.08 | 12 | – | – | – | – | – | –
COc1cc([C@@H]2c3cc4c(cc3[C@@H](O[C@@H]3O[C@@H]5CO[C@@H](C)O[C@H]5[C@H](O)[C@H]3O)[C@H]3COC(=O)[C@H]23)OCO4)cc(OC)c1O [ETOPOSIDE] | 2.56 | 4.61 | 83.4 | 20.2 | – | – | – | – | – | –
COc1cc([C@@H]2c3cc4c(cc3[C@@H](Nc3ccc(CCN(C)C)cc3)[C@H]3COC(=O)[C@H]23)OCO4)cc(OC)c1O | 19 | 2.42 | 3.95 | 17.1 | – | – | – | – | – | –
CCN(CC)CCc1cccc(N[C@@H]2c3cc4c(cc3[C@@H](c3cc(OC)c(O)c(OC)c3)[C@H]3C(=O)OC[C@@H]32)OCO4)c1 | 7.49 | 0.77 | 3.87 | 14.6 | – | – | – | – | – | –
CCN(CC)C(=O)Cc1cccc(N[C@@H]2c3cc4c(cc3[C@@H](c3cc(OC)c(O)c(OC)c3)[C@H]3C(=O)OC[C@@H]32)OCO4)c1 | 4.78 | 0.42 | 27.2 | > 50 | – | – | – | – | – | –
COc1cc([C@@H]2c3cc4c(cc3[C@@H](Nc3ccc(CCN5CCCC5)cc3)[C@H]3COC(=O)[C@H]23)OCO4)cc(OC)c1O | 0.24 | 0.21 | 1.57 | 0.036 | – | – | – | – | – | –
COc1cc([C@@H]2c3cc4c(cc3[C@@H](Nc3ccc(COCCCCO)cc3)[C@H]3COC(=O)[C@H]23)OCO4)cc(OC)c1O | 8.5 | 6.6 | 9.55 | 20.3 | – | – | – | – | – | –
COc1cc([C@@H]2c3cc4c(cc3[C@@H](Nc3ccc(CC(=O)N5CCCC5)cc3)[C@H]3COC(=O)[C@H]23)OCO4)cc(OC)c1O | 15.9 | 1.52 | 2.2 | > 50 | – | – | – | – | – | –
COc1ccc(C(=O)Nc2ccc(N[C@@H]3c4cc5c(cc4[C@@H](c4cc(OC)c(O)c(OC)c4)[C@H]4C(=O)OC[C@@H]43)OCO5)cc2)cc1 | 3.41 | 6.76 | 9.28 | 0.44 | – | – | – | – | – | –
COc1cc([C@@H]2c3cc4c(cc3[C@@H](Nc3ccc(NC(=O)CCc5ccccc5[N+](=O)[O-])cc3)[C@H]3COC(=O)[C@H]23)OCO4)cc(OC)c1O | 8.43 | 6.69 | 5.3 | 0.41 | – | – | – | – | – | –
COc1cc([C@@H]2c3cc4c(cc3[C@@H](Nc3ccc(CCN(C(C)C)C(C)C)cc3)[C@H]3COC(=O)[C@H]23)OCO4)cc(OC)c1O | 0.49 | 0.44 | 2.2 | 10 | – | – | – | – | – | –
COc1cc([C@@H]2c3cc4c(cc3[C@@H](Nc3ccc(NC(=O)c5ccc(Cl)cc5)cc3)[C@H]3COC(=O)[C@H]23)OCO4)cc(OC)c1O | 19.5 | 22.1 | 13.1 | 6.56 | – | – | – | – | – | –
COc1cc([C@@H]2c3cc4c(cc3[C@@H](Nc3ccc(OCCO)cc3)[C@H]3COC(=O)[C@H]23)OCO4)cc(OC)c1O | 4.54 | 2.88 | 6.51 | 4.13 | – | – | – | 17 | 45.4 | 37.5
COc1cc([C@@H]2c3cc4c(cc3[C@@H](Nc3ccc(CC(=O)N5CCCCC5)cc3)[C@H]3COC(=O)[C@H]23)OCO4)cc(OC)c1O | 5.2 | 0.4 | 2.33 | 25.8 | – | – | – | – | – | –
COc1cc([C@@H]2c3cc4c(cc3[C@@H](N(C(=O)c3ccc(Cl)cc3)c3ccc(NC(=O)c5ccc(Cl)cc5)cc3)[C@H]3COC(=O)[C@H]23)OCO4)cc(OC)c1O | > 50 | > 50 | 14.2 | 19.6 | – | – | – | – | – | –

— ChEMBL document CHEMBL1649404, “Synthesis and biological evaluation of new 4β-anilino-4'-O-demethyl-4-desoxypodophyllotoxin derivatives as potential antitumor agents” (Eur J Med Chem, 2011)
